Assay results as given in patent US8461183B2, “PPAR agonist compounds, preparation and uses” (Genfit, priority 2008, dated 2013).

Assays:
Format in all cases: cell-based
hPPARα = target: T1, hPPARα (Homo sapiens, UniProt Q07869); assay: Gal4-hPPARα chimera transactivation (luciferase) in COS-7 cells; details: COS-7 cells, Gal4-hPPARα, 24 hours; for EC50: luciferase, read-out: PPARα EC50; for Emax / PPARα TOP % (maximum activation): relative to maximum activation obtained with fenofibric acid; for Emax: read-out: PPARα TOP % (maximum activation)
T1 construct: corresponding to the DEF domains (structural elements of the promoter of the PPARs: D=hinge, EF=ligand fixation domain and AF2 fixation site); expressed in transfected cells; host or cells: COS-7 (monkey kidney fibroblasts)
T1 sequence (Q07869 239-466 limits assumed): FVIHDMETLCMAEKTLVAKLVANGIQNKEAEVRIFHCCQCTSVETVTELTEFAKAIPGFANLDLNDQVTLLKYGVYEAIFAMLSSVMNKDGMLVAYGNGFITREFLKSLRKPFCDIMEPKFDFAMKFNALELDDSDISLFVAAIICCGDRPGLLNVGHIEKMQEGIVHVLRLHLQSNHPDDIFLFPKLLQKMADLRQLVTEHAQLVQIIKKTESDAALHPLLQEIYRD
Procedure: (§1) Activation of PPARs is evaluated in vitro on a line of monkey kidney fibroblasts (COS-7) by measuring the transcriptional activity of chimeras consisting of the DNA binding domain of Gal4 transcription factor of yeast and of the ligand binding domain of the various PPARs of human origin (hPPAR).
(§2) The COS-7 cells are from ATCC and are cultivated in DMEM medium supplemented with 10% (vol/vol) of fetal calf serum, 1% of penicillin/streptomycin (Biochrom, AG), 1% of amino acids (Gibco) and 1% of sodium pyruvate (Gibco). The cells are incubated at 37° C. in a humid atmosphere containing 5% CO2.
(§3) The plasmids Gal4(RE)_TkpGL3, pGal4-hPPARα, pGal4-hPPARγ, pGal4-hPPARδ and pGal4-φ are described in the literature (Raspe E et al., 1999). The constructs pGal4-hPPARα, pGal4-hPPARγ and pGal4-hPPARδ were obtained by cloning, into the pGal4-φ vector, DNA fragments amplified by PCR corresponding to the DEF domains (structural elements of the promoter of the PPARs: D=hinge, EF=ligand fixation domain and AF2 fixation site) of the human nuclear receptors PPAα, PPARγ and PPARδ.
(§4) The adherent COS-7 cells are transfected with 40 μg of DNA per 225 cm^2 flask, with a pGal4-hPPAR/Gal4(RE)_TkpGL3 ratio of 1/10, in the presence of 10% of fetal calf serum. The cells are then detached and seeded in the absence of serum in 384-well plates (2×10^4 cells/well) then incubated for 4 hours at 37° C. The compounds are then diluted in a 96-well plate and then transferred to the 384-well plate. Activation with the test compounds is effected for a further 24 hours at 37° C. in the presence of 1% of synthetic serum Ultroser™ (Biosepra). These last 2 stages are automated by means of a Genesis Freedom 200™ station (Tecan). At the end of the experiment, the cells are lysed and the luciferase activity is determined using the Steady-Lite™ HTS (Perkin Elmer) according to the supplier's recommendations.
The test data are summarized in Table 8-1 below, which presents, for each compound, the values of maximum activation (TOP %) and the EC50 values measured for each isoform of PPAR. The values of maximum activation are expressed in percentages relative to the maximum activations obtained with reference agonists: fenofibric acid for PPARα, rosiglitazone for PPARγ and 2-methyl-4-((4-methyl-2-(4-trifluoromethylphenyl)-1,3-thiazol-5-yl)-methylsulfanyl)phenoxyacetic acid (also called GW501516) for PPARδ.

hPPARγ = target: T2, hPPARγ (Homo sapiens, UniProt P37231); assay: Gal4-hPPARγ chimera transactivation (luciferase) in COS-7 cells; details: 24 hours; for EC50: luciferase, read-out: PPARγ EC50; for Emax: read-out: PPARγ TOP % (maximum activation)
T2 construct: corresponding to the DEF domains (structural elements of the promoter of the PPARs: D=hinge, EF=ligand fixation domain and AF2 fixation site); expressed in transfected cells; host or cells: COS-7 (monkey kidney fibroblasts)
T2 sequence (P37231 238-503 limits assumed): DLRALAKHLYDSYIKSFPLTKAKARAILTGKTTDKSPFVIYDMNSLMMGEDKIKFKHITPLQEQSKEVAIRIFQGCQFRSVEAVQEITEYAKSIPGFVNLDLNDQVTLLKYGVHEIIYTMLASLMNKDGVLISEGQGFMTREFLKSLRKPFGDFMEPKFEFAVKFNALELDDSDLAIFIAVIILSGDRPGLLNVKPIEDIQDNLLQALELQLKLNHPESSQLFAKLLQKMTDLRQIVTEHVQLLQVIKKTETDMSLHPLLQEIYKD
Procedure: as §1, §2, §3, §4
(§5) The test data are summarized in Table 8-1 below, which presents, for each compound, the values of maximum activation (TOP %) and the EC50 values measured for each isoform of PPAR.

hPPARδ = target: T3, hPPARδ (Homo sapiens, UniProt Q03181); assay: Gal4-hPPARδ chimera transactivation (luciferase) in COS-7 cells; details: COS-7 cells, Gal4-hPPARδ, 24 hours; for EC50: luciferase, read-out: PPARδ EC50; for Emax: read-out: PPARδ TOP % (maximum activation)
T3 construct: corresponding to the DEF domains (structural elements of the promoter of the PPARs: D=hinge, EF=ligand fixation domain and AF2 fixation site); expressed in transfected cells; host or cells: COS-7 (monkey kidney fibroblasts)
T3 sequence (Q03181 211-439 limits assumed): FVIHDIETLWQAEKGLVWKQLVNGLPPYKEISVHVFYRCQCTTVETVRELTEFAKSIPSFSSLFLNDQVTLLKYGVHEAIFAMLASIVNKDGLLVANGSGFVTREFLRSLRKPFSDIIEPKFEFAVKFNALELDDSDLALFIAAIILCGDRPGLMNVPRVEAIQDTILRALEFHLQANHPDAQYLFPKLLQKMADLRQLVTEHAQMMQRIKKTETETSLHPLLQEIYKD
Procedure: as §1, §2, §3, §4, §5

[1] = relative to maximum activation obtained with rosiglitazone
[2] = relative to maximum activation obtained with GW501516

Compound	EC50 (hPPARα)	Emax (hPPARα)	EC50 (hPPARγ)	Emax (hPPARγ; [1])	EC50 (hPPARδ)	Emax (hPPARδ; [2])	PPARα TOP % (maximum activation) (hPPARα)	PPARγ TOP % (maximum activation) (hPPARγ; [1])	PPARδ TOP % (maximum activation) (hPPARδ; [2])
2-(4-(((2-methoxy-6-furylpyridin-3-yl)methyl)amino)phenylthio)ethanoic acid [Cpd 30]	12100 nM						38.70%		
COc1nc(-c2ccccc2)ccc1CNc1ccc(C(C)CC(=O)O)cc1 (centres unmarked) [Cpd 45, 3-(4-(((2-methoxy-6-phenylpyridin-3-yl)methyl)amino)phenyl)butanoic acid]	6430 nM	43.2%	2390 nM	79.4%	3360 nM	97.3%			
COc1ncc(-c2ccccc2)cc1CNc1ccc(SCC(=O)O)cc1 [Cpd 26, 2-(4-(((2-methoxy-5-phenylpyridin-3-yl)methyl)amino)phenylthio)ethanoic acid]	20900 nM	67%	44100 nM	208%	31100 nM	138%			
CC(C)(C)Oc1nc(-c2ccccc2)ccc1CNc1ccc(OCC(=O)O)cc1 [Cpd 8]	7920 nM	21.9%	12200 nM	13.4%	2110 nM	72.4%			
COc1ncc(-c2cccc(C(F)(F)F)c2)cc1CNc1ccc(CCC(=O)O)cc1 [Cpd 47, 3-(4-(((2-methoxy-5-(3-(trifluoromethyl)phenyl)pyridin-3-yl)methyl)amino)-phenyl)propanoic acid]	1900 nM	58.6%	1080 nM	85%	1910 nM	79.2%			
COc1ncc(-c2ccccc2)cc1CNc1ccc(CCC(=O)O)cc1 [Cpd 41, 3-(4-(((2-methoxy-5-phenylpyridin-3-yl)methyl)amino)phenyl)propanoic acid]	7360 nM	35.9%	27200 nM	72.1%	17000 nM	107%			
COc1ncc(-c2ccc(Cl)cc2)cc1CNc1ccc(CCC(=O)O)cc1 [Cpd 49, 3-(4-(((5-(4-chlorophenyl)-2-methoxypyridin-3-yl)methyl)amino)phenyl)-propanoic acid]	3620 nM	51.1%	4040 nM	73.2%	408 nM	123%			
CCCCCCOc1nc(-c2ccccc2)ccc1COc1ccc(OCC(=O)O)cc1 [Cpd 15, 2-(4-((2-hexyloxy-6-phenylpyridin-3-yl)methoxy)phenoxy)ethanoic acid]	3240 nM	78.2%	12300 nM	46.6%	1520 nM	96.5%			
3-(4-(((2-methoxy-6-furylpyridin-3-yl)methyl)amino)phenyl)propanoic acid [Cpd 31]	2490 nM		3360 nM		16300 nM		49.52%	62.35%	86.72%

The next compounds have a lower EC50 (hPPARα) than those just listed; values first:

EC50 (hPPARα)	Emax (hPPARα)	EC50 (hPPARγ)	Emax (hPPARγ; [1])	EC50 (hPPARδ)	Emax (hPPARδ; [2])	PPARα TOP % (maximum activation) (hPPARα)	PPARγ TOP % (maximum activation) (hPPARγ; [1])	PPARδ TOP % (maximum activation) (hPPARδ; [2])	Compound
195 nM	78.1%	2640 nM	44.9%	2360 nM	84.2%				COc1nc(-c2ccccc2)ccc1CNc1ccc(OC(C)(C)C(=O)O)cc1 [Cpd 12, 2-(4-(((2-methoxy-6-phenylpyridin-3-yl)methyl)amino)phenoxy)-2-methyl-propanoic acid]
9 nM	66.8%	583 nM	75.6%	992 nM	99.6%				CCCCCCOc1nc(-c2ccccc2)ccc1COc1ccc(OC(C)(C)C(=O)O)cc1 [Cpd 17, 2-(4-((2-hexyloxy-6-phenylpyridin-3-yl)methoxy)phenoxy)-2-methyl-propanoic acid]
622 nM	60%	1940 nM	69.4%	28 nM	107%				COc1ncc(-c2ccc(C(F)(F)F)cc2)cc1CNc1ccc(CCC(=O)O)cc1 [Cpd 46, 3-(4-(((2-methoxy-5-(4-(trifluoromethyl)phenyl)pyridin-3-yl)methyl)amino)phenyl)propanoic acid]
432 nM	68.7%	3240 nM	43.6%	1200 nM	114%				COc1nc(-c2ccccc2)ccc1COc1ccc(OC(C)C(=O)O)cc1 (centres unmarked) [Cpd 3, 2-(4-((2-methoxy-6-phenylpyridin-3-yl)methoxy)phenoxy)propanoic acid]
771 nM	46.8%	1920 nM	63.7%	770 nM	103%				COc1ncc(-c2ccc3ccccc3c2)cc1CNc1ccc(CCC(=O)O)cc1 [Cpd 50, 3-(4-(((2-methoxy-5-(naphthalen-2-yl)pyridin-3-yl)methyl)amino)phenyl)-propanoic acid]
1440 nM	44.9%	402 nM	85.6%	1510 nM	77.9%				COc1cc(NCc2ccc(-c3ccccc3)nc2OC)ccc1CCC(=O)O [Cpd 43, 3-(2-methoxy-4-(((2-methoxy-6-phenylpyridin-3-yl)methyl)amino)-phenyl)-propanoic acid]
1420 nM	67.6%	2330 nM	80.4%	526 nM	108%				CCC(Nc1ccc(CCC(=O)O)cc1)c1ccc(-c2ccccc2)nc1OC (centres unmarked) [Cpd 34, 3-(4-(1-((2-methoxy-6-phenylpyridin-3-yl)propyl)amino)phenyl)propanoic acid]
44 nM	65.3%	2840 nM	75.6%	501 nM	85.4%				COc1nc(-c2ccc(C(F)(F)F)cc2)ccc1CNc1ccc(SCC(=O)O)cc1 [Cpd 23, 2-(4-(((2-methoxy-6-(4-(trifluoromethyl)phenyl)pyridin-3-yl)methyl)amino)-phenylthio)ethanoic acid]
510 nM	78%	5180 nM	70%	3370 nM	85.2%				COc1nc(-c2ccccc2)ccc1CNc1ccc(SCC(=O)O)cc1 [Cpd 16, 2-(4-(((2-methoxy-6-phenylpyridin-3-yl)methyl)amino)phenylthio)ethanoic acid]
